Assay results reported in publication PMC11920646 (Frontiers in Pharmacology, 2025).
Values joined by “and” are separate entries in the source; they are usually repeats but may differ in a detail not shown here. Identical values can stand only once.

Tests used:
[1] = tested on: LPS-induced IFN-γ release in human whole blood; experiment: Inhibition of LPS-induced IFN-γ release in human whole blood; format: cell-based; settings: 24 h
Protocol: Appropriate control wells were included (2 μL DMSO ± LPS). Subsequently, 1 mL of whole blood solution from each well was incubated at 37°C for 24 h in LPS-containing culture tubes, where final test compound concentrations were 0.0032, 0.016, 0.08, 0.4, 2, and 10 μM. Culture supernatant was harvested using the Seraplas® V11 valve filter (Sarstedt, Nümbrecht, Germany) and IFN-γ determined using validated methods with the V-PLEX assay (V-PLEX Proinflammatory Panel 1 Human Kit, Meso Scale Discovery, Rockville, MD, United States), as shown in Supplementary Table S1. […] IC50 values corrected for PPB were also determined, giving IC50,free values (using the same formula as for the TNF-α assay in rat whole blood).

[2] = tested on: IL-6 release in A549 cells; parameters: method as in Hu et al., 2011; settings: dagrocorat study ref Hu et al., 2011; cited from earlier work
[3] = tested on: SCW-induced ankle inflammation in female Lewis rats; experiment: Rat streptococcal cell wall (SCW) model of joint inflammation; format: in vivo
Protocol: Female Lewis rats (150–200 g, Charles River, United Kingdom) were used for the model of joint inflammation (see Supplementary Material for animal care), with in vivo efficacy assays conducted at the Saretius Ltd., Science and Technology Centre (Reading, United Kingdom). Monoarticular joint inflammation was induced on Day −21 by intra-articular injection of 10 μg of streptococcal cell wall (SCW) extract (Lee Laboratories, BD Scientific, Franklin Lakes, NJ, United States) into the left hind ankle joint. […] Treatments, including control, were administered orally once daily on Days −1 to 6 of the study. Additionally, on Day 0, each rat received an intravenous (IV) dose of 100 μg SCW extract 2 h after oral dosing. IV injections were given after rats had spent up to 10 min in a 40°C hot box (Thermacage MK2, Datesand Ltd., Manchester, United Kingdom).
Rat ankle diameters were measured using digital calipers (Mitutoyo, United Kingdom, Model: CDS6CX), mechanical allodynia tested using von Frey hairs, and rats weighed, per the schedule in Supplementary Table S2. […] On Day 6, rats were euthanized by a schedule 1 method (carbon dioxide) and terminal blood samples collected by cardiac puncture. After centrifugation to obtain plasma supernatant (10,000 rpm, 3 min), plasma was stored at −20°C until analysis. […] Glucose test strips (Roche Accu-Check with Aviva blood glucose system meter) were used to measure blood glucose levels at the time blood was drawn. All data were analyzed with Statistica v11 software (StatSoft Inc., Tulsa, OK, United States), using the Kolmogorov-Smirnov test to assess normality of distribution (see Supplementary Material for further detail), and to determine total area under the concentration-time curve (AUC) using the trapezoidal method. […] The effect of each treatment on ankle inflammation was determined by the reduction in ipsilateral ankle AUC versus control.
Data that was not normally distributed were analyzed with Kruskal-Wallis analysis of variance (ANOVA) followed by Dunn’s multiple comparisons tests. Normally distributed data were analyzed with repeated measures ANOVAs as appropriate, one-way ANOVAs and Dunnett’s post hoc tests.

[4] = humans ref Ferry et al., 1988; cited from earlier work
[5] = tested on: TNF-α–induced IL-6 release from primary fibroblast-like synoviocytes; experiment: Inhibition of TNF-α–induced IL-6 release by primary FLS from rheumatoid arthritis patients; format: cell-based, human; settings: for IL-6 concentration: replicate wells 1-3
Protocol: In this assay, conducted by BioIVT (Hertfordshire, United Kingdom), primary FLS were obtained from three donors with rheumatoid arthritis and seeded at passage 4 in FGM™-2 fibroblast growth medium (Lonza) in 96-well plates at a density of […], and incubated overnight in standard conditions. […] Negative controls were TNF-α alone and culture medium alone, and vehicle control was DMSO (0.1%). IL-6 was measured in collected supernatant using an enzyme-linked immunosorbent assay (ELISA, R&D Systems Minneapolis, MN, United States) according to the manufacturer’s instructions.
% inhibition= compound -maxmin- max ×100

human MR = target: T1, human MR (Homo sapiens, UniProt P08235); experiment: MR reporter gene (transactivation) assay, CHO-Gal4/MR; format: cell-based
T1 construct: host or cells: CHO (DSMZ ACC-110), CHO-Gal4/MR
T1 sequence (P08235 726-964 limits assumed): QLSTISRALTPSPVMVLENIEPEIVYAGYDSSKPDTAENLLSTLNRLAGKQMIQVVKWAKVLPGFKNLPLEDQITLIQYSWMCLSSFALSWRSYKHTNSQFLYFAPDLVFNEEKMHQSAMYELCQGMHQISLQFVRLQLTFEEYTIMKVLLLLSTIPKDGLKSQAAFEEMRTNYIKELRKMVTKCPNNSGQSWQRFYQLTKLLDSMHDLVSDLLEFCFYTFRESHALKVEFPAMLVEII
Excerpt: To create the CHO-Gal4/GR, CHO-Gal4/PR, and CHO-Gal4/MR reporter cell lines, first CHO cells were stably transfected with a GAL4-UAS-luciferase reporter construct. Then, the LBD of the GR, PR, or MR (GR Gene ID: 2908, PR Gene ID: 5241, MR Gene ID: 4306, respectively) was cloned into pIRES2-EGFP-GAL4 containing the DBD of GAL4 from pFA-AT2, and then co-transfected into the luciferase-reporter construct-containing CHO cells. These reporter cell lines express the respective nuclear hormone receptor LBD-DBD fusion proteins that control luciferase expression of a GAL4-upstream activation sequence (UAS)-luciferase reporter construct, allowing for detection of ligand- or compound-induced transactivation at the GR, PR, or MR by measuring luciferase activity.
Cryo-preserved CHO-Gal4/GR, CHO-Gal4/PR, and CHO-Gal4/MR cells were plated in medium at 7,500 cells/well in 384-well assay plates (25 μL/well), and incubated for 24 h. […] Following a 4-h incubation, cells were lysed and luminescence measured using the EMCCD camera FLIPR®Tetra (Molecular Devices, Silicon Valley, CA, United States).
Transactivation (i.e., gene activation) was expressed as a percentage of the reference agonist activity (Supplementary Material), using Genedata Screener® v15.0.5 software (Basel, Switzerland).
Transactivation was calculated according to this equation: […]

With `C[C@]12C=CC(=O)C=C1CC[C@@H]1[C@@H]2[C@@H](O)C[C@@]2(C)[C@H]1CC[C@]2(O)C(=O)CO` [Prednisolone] the IC50 [1] was 13.4 ± 7.95 nM, the “Inhibition of LPS-induced IFN-γ release” value [1] was 99.3 ± 2.8% and the “Inhibition of LPS-induced IFN-γ release” value ([1]; listed as prednisolone) was 99%. The “inhibition of IL-6 release in A549 cells” value [2] was 100%, the “change in blood glucose AUC2.5–24h versus vehicle” value ([3]; Day 5, GRM-01 any dose 0.01–1 mg/kg/day, prednisolone 30 mg/kg/day) was “statistically significant increase” and the “blood glucose at time points post dose versus vehicle” value ([3]; Day 5, GRM-01 at 2.5 h, all doses except 0.03 mg/kg/day, not dose dependent, prednisolone 30 mg/kg/day at 2.5, 4 and 6 h) was “significantly higher blood glucose levels”. The “effect on plasma corticosterone levels vs vehicle” value ([3]; Day 6, GRM-01 significant at 0.3 mg/kg/day (p < 0.01), prednisolone 30 mg/kg/day (p < 0.01)) was “reduced plasma corticosterone levels”, the “antinociceptive effect (ipsilateral paw withdrawal threshold vs vehicle)” value ([3]; GRM-01 0.1, 0.3, 1 mg/kg/day, prednisolone 30 mg/kg/day) was “demonstrated an antinociceptive effect” and the ED50 ([3]; rat SCW model, separate and independent study, doses 0.003–30 mg/kg, read-out: ED50, change in AUC of ankle diameter) was 2.49 mg/kg. The t½ [4] was about 2.5 h, the IL-6 concentration ([5]; Donor 1, compound −5 log M) was 260.7 pg/mL and 224.6 pg/mL and 206.6 pg/mL and the IL-6 concentration ([5]; Donor 1, compound −6 log M) was 269.7 pg/mL and 215.6 pg/mL and 206.6 pg/mL. For the same molecule, the IL-6 concentration ([5]; Donor 1, compound −7 log M) was 292.3 pg/mL and 274.3 pg/mL and 238.1 pg/mL, the IL-6 concentration ([5]; Donor 1, compound −8 log M) was 616.3 pg/mL and 483.3 pg/mL and 446.8 pg/mL and the IL-6 concentration ([5]; Donor 1, compound −9 log M) was 988.4 pg/mL and 736.4 pg/mL and 685.5 pg/mL. For the same molecule, the IL-6 concentration ([5]; Donor 1, compound −10 log M) was 880.6 pg/mL and 778.2 pg/mL and 796.8 pg/mL, the IL-6 concentration ([5]; Donor 1, compound −11 log M) was 964.9 pg/mL and 801.4 pg/mL and 731.8 pg/mL and the IL-6 concentration ([5]; Donor 1, compound −12 log M) was 946.2 pg/mL and 768.9 pg/mL and 708.6 pg/mL. The IL-6 concentration ([5]; Donor 1, compound −13 log M) was 1101.6 pg/mL and 838.7 pg/mL and 755.0 pg/mL, the IL-6 concentration ([5]; Donor 1, compound −14 log M) was 1106.3 pg/mL and 960.2 pg/mL and 880.6 pg/mL and the IL-6 concentration ([5]; Donor 2, compound −5 log M) was 516.5 pg/mL and 385.6 pg/mL and 394.9 pg/mL. For the same molecule, the IL-6 concentration ([5]; Donor 2, compound −6 log M) was 521.2 pg/mL and 394.9 pg/mL and 381.0 pg/mL, the IL-6 concentration ([5]; Donor 2, compound −7 log M) was 554.0 pg/mL and 394.9 pg/mL and 404.3 pg/mL and the IL-6 concentration ([5]; Donor 2, compound −8 log M) was 848.1 pg/mL and 695.7 pg/mL and 681.5 pg/mL. For the same molecule, the IL-6 concentration ([5]; Donor 2, compound −9 log M) was 1338.8 pg/mL and 1045.5 pg/mL and 1157.3 pg/mL, the IL-6 concentration ([5]; Donor 2, compound −10 log M) was 1309.2 pg/mL and 1108.6 pg/mL and 1215.9 pg/mL and the IL-6 concentration ([5]; Donor 2, compound −11 log M) was 1497.4 pg/mL and 1079.5 pg/mL and 2570.2 pg/mL. For the same molecule, the IL-6 concentration ([5]; Donor 2, compound −12 log M) was 1427.8 pg/mL and 1215.9 pg/mL and 1123.2 pg/mL, the IL-6 concentration ([5]; Donor 2, compound −13 log M) was 2326.4 pg/mL and 1123.2 pg/mL and 1142.7 pg/mL and the IL-6 concentration ([5]; Donor 2, compound −14 log M) was 1552.3 pg/mL and 1393.1 pg/mL and 1255.1 pg/mL. For the same molecule, the IL-6 concentration ([5]; Donor 3, compound −5 log M) was 172.0 pg/mL and 199.6 pg/mL and 166.5 pg/mL, the IL-6 concentration ([5]; Donor 3, compound −6 log M) was 170.2 pg/mL and 159.2 pg/mL and 179.4 pg/mL and the IL-6 concentration ([5]; Donor 3, compound −7 log M) was 221.8 pg/mL and 220.0 pg/mL and 214.4 pg/mL. For the same molecule, the IL-6 concentration ([5]; Donor 3, compound −8 log M) was 621.9 pg/mL and 428.5 pg/mL and 386.6 pg/mL, the IL-6 concentration ([5]; Donor 3, compound −9 log M) was 645.5 pg/mL and 847.5 pg/mL and 637.6 pg/mL and the IL-6 concentration ([5]; Donor 3, compound −10 log M) was 1022.6 pg/mL and 1127.9 pg/mL and 983.0 pg/mL. For the same molecule, the IL-6 concentration ([5]; Donor 3, compound −11 log M) was 774.8 pg/mL and 813.1 pg/mL and 796.9 pg/mL, the IL-6 concentration ([5]; Donor 3, compound −12 log M) was 904.7 pg/mL and 837.4 pg/mL and 859.7 pg/mL and the IL-6 concentration ([5]; Donor 3, compound −13 log M) was 956.1 pg/mL and 937.5 pg/mL and 1151.3 pg/mL. The IL-6 concentration ([5]; Donor 3, compound −14 log M) was 888.3 pg/mL and 831.3 pg/mL and 947.8 pg/mL, the IC50 ([5]; Homo sapiens, primary FLS from three RA donors, 24 h) was 5.6 ± 2.3 nM and the “Inhibition (efficacy) of TNF-α–induced IL-6 release” value ([5]; primary FLS from three RA donors, 24 h) was 79.8 ± 7.6%. For the same molecule, the EC50 (human MR; 4-h incubation) was 11.8 ± 3.2 nM and the “MR transactivation, mean activation” value (human MR; % of reference agonist fludrocortisone) was 66.4 ± 4.7%.
